The test system of one assay is IRAK1/4. Kind of assay: Western blot of phosphorylated IRAK1/4 in human RPE cells. It counts as cell-based. The note with it: normalized to Vinculin. As for the experimental part:
Protein abundance and activity. Protein abundance was assessed by Western blot analysis using primary antibodies recognizing Caspase-1 (1:500; Invitrogen), pIRAK1 (1:500; Thermo Scientific), pIRAK4 (1:500, Abbomax, Inc), PYCARD (1:200, Santa Cruz Biotechnology), NLRP3 (1:500, Enzo Life Sciences) and Vinculin (1:1,000; Sigma-Aldrich). Caspase-1 activity was visualized using Caspalux1 E1D2 (OncoImmunin) reagent according to the manufacturer's instructions.
Western blotting. Tissues or cells were homogenized in lysis buffer (10 mM Tris base, pH 7.4, 150 mM NaCl, 1 mM EDTA, 1 mM EGTA, 1% Triton X-100, 0.5% NP-40, protease and phosphatase inhibitor cocktail (Roche)). Protein concentrations were determined using a Bradford assay kit (Bio-Rad) with bovine serum albumin as a standard. Proteins (40-100 μg) were run on NuPAGE Bis-Tris gels (Invitrogen) and transferred to Immun-Blot PVDF membranes (Bio-Rad). Cells were scraped in hot Laemmli buffer (62.5 mM Tris base, pH 6.8, 2% SDS, 5% 2-Mercaptoethanol, 10% Glycerol, 0.01% Bromophenol Blue). Samples were boiled and run on 4-20% NuPAGE Tris-Glycine gels (Invitrogen). […] Protein loading was assessed by immunoblotting using an anti-Vinculin antibody (1:1,000; Sigma-Aldrich). […]
(In general: In western blotting, separated proteins are transferred to a membrane and probed.)

In a further assay the test system is wild-type mice. Put plainly: Alu RNA- or pAlu-induced RPE degeneration after subretinal injection (fundus photographs, ZO-1 flat mounts). The format is in vivo. The note with it: subretinal Alu RNA, test agent intravitreous. As for the experimental part: Subretinal injection and imaging. Subretinal injections (1 μL) in mice were performed using a Pico-Injector (PLI-100, Harvard Apparatus). In vivo transfection of plasmids was achieved using 10% Neuroporter (Genlantis). Fundus imaging was performed on a TRC-50 IX camera (Topcon) linked to a digital imaging system (Sony). Immunolabeling of RPE flat mounts was performed using antibodies against human zonula occludens-1 (Invitrogen).
Fundus photography. Retinal photographs of dilated mouse eyes were taken with a TRC-50 IX camera (Topcon) linked to a digital imaging system (Sony).
Immunolabeling. Human eyes fixed in 2-4% paraformaldehyde were prepared as eyecups, cryoprotected in 30% sucrose, embedded in optimal cutting temperature compound (Tissue-Tek OCT; Sakura Finetek), and cryosectioned into 10 μm sections. Depigmentation was achieved using 0.25% potassium permanganate and 0.1% oxalic acid. Immunohistochemical staining was performed with the rabbit antibody against NLRP3 (1:100, Sigma Aldrich) or rabbit antibody against Caspase-1 (prediluted, AbCam). Isotype IgG was substituted for the primary antibody to assess the specificity of the staining. Bound antibody was detected with biotin-conjugated secondary antibodies, followed by incubation with ABC reagent and visualized by Vector Blue (Vector Laboratories). Levamisole (Vector Laboratories) was used to block endogenous alkaline phosphatase activity. Slides were washed in PBS, counterstained with neutral red (Fisher Scientific), rinsed with deionized water, air dried, and then mounted in Vectamount (Vector Laboratories). Fluorescent labeling of human tissue was performed with the rabbit antibody against PYCARD (1:50, Clone N-15, Santa Cruz Biotechnology). Immunolabeling was visualized by fluorescently conjugated anti-rabbit secondary antibody (Invitrogen). Tissue autofluorescence was quenched by incubating the sections in 0.3% Sudan black (Fisher Scientific). Sections were mounted in Vectashield with DAPI (Vector Laboratories). Mouse RPE/choroid flat mounts were fixed with 4% paraformaldehyde or 100% methanol, stained with rabbit antibodies against human zonula occludens-1 (1:100, Invitrogen) and visualized with Alexa594 (Invitrogen). All images were obtained using the Leica SP-5 or Zeiss Axio Observer Z1 microscopes.
Subretinal injection. Subretinal injections (1 μL) in mice were performed using a Pico-Injector (PLI-100, Harvard Apparatus). In vivo transfection of plasmids coding for two different Alu sequences (pAlu) or empty control vector (pNull) (Bennett et al., 2008; Kaneko et al., 2011; Shaikh et al., 1997) was achieved using 10% Neuroporter (Genlantis). AAV1-BEST1-Cre (Alexander and Hauswirth, 2008) or AAV1-BEST1-GFP were injected at […] pfu/mL and in vitro transcribed Alu RNA was injected at 0.3 mg/mL.
Drug treatments. siRNAs formulated in siRNA buffer (20 mM KCL, 0.2 mM MgCl2 in HEPES buffer at pH 7.5; Dharmacon) or phosphate buffered saline (PBS; Sigma-Aldrich); the TLR4 antagonist Ultra Pure Rhodobacter sphaeroides LPS (LPS-RS, InvivoGen), a peptide inhibitor of MyD88 homodimerization IMG-2005 (IMGENEX), control inhibitor (IMGENEX), recombinant IL-18 (Medical & Biological Laboratories), neutralizing rat antibodies against mouse IL-1β (IMGENEX), neutralizing rat antibodies against mouse IL-18 (Medical & Biological Laboratories), isotype control IgGs (R&D Systems or eBioscience as appropriate), Caspase-1 inhibitor Z-WEHD-FMK (R&D Systems), Caspase-3 inhibitor Z-DEVD-FMK (R&D Systems), Caspase control inhibitor Z-FA-FMK (R&D Systems), (2R,4R)-APDC (Enzo Life Sciences), Glipizide (Sigma-Aldrich), Glyburide (Sigma-Aldrich), and P2X7 receptor antagonist A438079 (Tocris Bioscience) were dissolved in phosphate buffered saline (PBS; Sigma-Aldrich) or dimethyl sulfoxide (DMSO; Sigma-Aldrich), and injected into the vitreous humor in a total volume of 1 μL with a 33-gauge Exmire microsyringe (Ito Corporation). […]

In assay [1] the test system is Dicer1f/f mouse RPE cells. Put plainly: miRNA quantification in Dicer1f/f mouse RPE cells treated with Ad-Cre. The note with it: versus control peptide. The format is cell-based. The source says: miRNA quantification. Total RNA containing miRNAs was polyadenylated and reverse transcribed using universal primer using the All-In-One miRNA q-RT-PCR Detection Kit (GeneCopoeia) according to the manufacturer's specifications using a universal reverse primer in combination with forward primers for: mouse miR-184; mouse miR-221/222; mouse miR-320a; and mouse miR-484. miRNA levels were normalized to levels of U6 snRNA using the 2^−ΔΔct method. Detection was achieved by SYBR green qPCR with the following conditions: 95° C. for 10 min followed by 40 cycles of 95° C. for 10 s, 60° C. for 20 s and 72° C. for 20 s. Amplicon specificity was assessed by melt curve analysis and unique bands by agarose gel electrophoresis.
Adenoviral infection. Cells were plated at density of 15×10^3/cm^2 and after 16 h, at approximately 50% confluence, were infected with AdCre or AdNull (Vector Laboratories) with a multiplicity of infection of 1,000.

On to “MyD88 inhibitory peptide: peptide inhibitor of MyD88 homodimerization IMG-2005 (IMGENEX)”, for which the “Alu RNA-induced phosphorylation of IRAK1/4” value in the assay with IRAK1/4 is on record as “reduced”. For the same substance, in the assay with wild-type mice, the “Alu RNA-induced RPE degeneration” value is recorded as “prevented”. Also, the “miRNA abundance in Dicer1 depleted cells” value in assay [1] is “No significant difference”.

(Values after patent publication US11730743B2, “Protection of cells from degeneration and treatment of geographic atrophy” (University of Kentucky Research Foundation, priority 2012, dated 2023).)
